Experiments:
aurora kinase = aurora kinase isoform selectivity, Choudary et al. 2015; cited from earlier work
[1] = test system: Jurkat T cell lymphoma cells; test: Annexin V / propidium iodide flow cytometry apoptosis assay; format: cell-based; settings: 72 hours, 3 μM Compound A or B, 0.01 μM alisertib, alone or combined
Protocol: To determine the extent that the combination therapies of Compound A/alisertib and Compound B/alisertib promote induction of apoptosis, Jurkat T cell lymphoma cells were treated with: DMSO, 3 μM of Compound B, 3 μM of Compound A, 0.01 μM of alisertib, a combination of Compound B/alisertib, or a combination of Compound A/alisertib, for 72 hours. Cells were then harvested and stained with Annexin V and propidium iodide as above. Flow cytometry analysis was then used to measure the number of healthy and apoptotic cells under each treatment condition.

[2] = test system: Jeko-1 mantle cell lymphoma, SU-DHL-4 B cell lymphoma, and Jurkat T cell lymphoma cells; test: as above; format: cell-based; settings: 72 hours; 3 μM Compound B, 0.01 or 0.03 μM alisertib, alone or combined; single-agent effect in some cell lines only
Protocol: To test for induction of apoptosis, Jeko-1 mantle cell lymphoma, SU-DHL-4 B cell lymphoma, and Jurkat T cell lymphoma cells were treated for 72 hours with either: DMSO, 3 μM of Compound B, 0.01 μM of alisertib, 0.03 μM of alisertib, or a combination of both Compound B and alisertib for 72 hrs. Cells were then harvested and stained with Annexin V, which recognizes an epitope on cells in the early stages of apoptosis. Cells were also stained with propidium iodide, which is excluded from cells with intact membranes, thus marking only dead cells. Flow cytometry analysis was then performed to measure the number of healthy and apoptotic cells under each treatment condition.

[3] = test system: survivin, Aurora A, Aurora B, BubR1, CDC20 and MAD2L1 gene transcripts in H929 MM, U266 MM and Jeko-1 MCL cell lines; test: qPCR analysis of mitotic regulator downregulation across MM and MCL cell lines; format: cell-based; settings: U266 MM and Jeko-1 MCL cells
Protocol: Independent qPCR validation of mitotic regulator downregulation by Compound A across MM and MCL cell lines was performed using H929 MM, U266 MM and Jeko-1 MCL cell lines. The cells were treated with Compound A. Total RNA was extracted and gene expression was measured by quantitative polymerase chain reaction (PCR) analysis.

[4] = test system: survivin, Aurora A, Aurora B, BubR1, CDC20 and MAD2L1 gene transcripts in H929 multiple myeloma cells; test: Microarray gene expression profiling of H929 cells; format: cell-based; settings: H929 cells, 2, 3, or 4 μM, 24 hours or 48 hours, Affymetrix microarray
Protocol: Microarray gene expression profiling was performed in H929 multiple myeloma (MM) cells to determine whether key mitotic regulators are down regulated by […]. H929 multiple myeloma cells were treated for 24 hours or 48 hours with 2, 3, or 4 μM of Compound A. Total RNA was extracted from the cells and subjected to gene expression profiling using an Affymetrix microarray system (Santa Clara, Calif.).

Structure (SMILES)	Selectivity (aurora kinase)	percentage of cells undergoing apoptosis [1]	other results
O=C(Nc1c[nH]nc1-c1nc2cc(CN3CCOCC3)ccc2[nH]1)NC1CC1 [AT-9283]	Aurora A and Aurora B	–	–
COc1cc(Nc2ncc3c(n2)-c2ccc(Cl)cc2C(c2c(F)cccc2OC)=NC3)ccc1C(=O)O [Alisertib]	Aurora A	minimal induction of apoptosis	percentage of cells undergoing apoptosis [2]: some induction of apoptosis
CCN(CCCOc1ccc2c(Nc3cc(CC(=O)Nc4cccc(F)c4)[nH]n3)ncnc2c1)CCOP(=O)(O)O [Barasertib]	Aurora B	–	–
O=C(CCCCCCNC(=O)c1cnc(N(c2ccccc2)c2ccccc2)nc1)NO [Compound A, 2-(diphenylamino)-N-(7-(hydroxyamino)-7-oxoheptyl)pyrimidine-5-carboxamide]	–	minimal induction of apoptosis	expression of key mitotic regulatory genes (relative to RPLP1, vs DMSO) [3]: reduced the expression; expression of key mitotic regulatory genes (relative fold induction vs DMSO) [4]: reduced the expression
O=C(CCCCCCNC(=O)c1cnc(N(c2ccccc2)c2ccccc2Cl)nc1)NO [Compound B, 2-((2-chlorophenyl)(phenyl)amino)-N-(7-(hydroxyamino)-7-oxoheptyl)pyrimidine-5-carboxamide]	–	minimal induction of apoptosis	percentage of cells undergoing apoptosis [2]: some induction of apoptosis
CO[C@@H](C(=O)N1Cc2[nH]nc(NC(=O)c3ccc(N4CCN(C)CC4)cc3)c2C1)c1ccccc1 [Danusertib]	Pan	–	–
Cc1cc(Nc2cc(N3CCN(C)CC3)nc(/C=C/c3ccccc3)n2)n[nH]1 [ENMD- 2076]	Aurora A	–	–
O=C(O)[C@]1(Cc2cccc(Nc3nccs3)n2)CC[C@@H](Oc2cccc(Cl)c2F)CC1 [MK-5108]	Aurora A	–	–
Cc1cc(Nc2ncc(F)c(N[C@H]3[C@@H](C(N)=O)[C@@H]4C=C[C@H]3C4)n2)ccc1N1CCN(C)CC1 [MSC 1992371A]	Pan	–	–
Cc1cc(Nc2cc(N3CCN(C)CC3)nc(Sc3ccc(NC(=O)C4CC4)cc3)n2)[nH]n1 [Tozasertib]	Pan	–	–
